Assay results from patent publication US20160287566A1, “Anti-demodectic active agents and topical compositions for the treatment of demodicosis in humans and animals” (priority 2015, published 2016).
“Also recorded” adds a separate entry of the source.

Columns and labels:
[1] = tested on: Demodex; test: Human in vivo testing of topical compositions (inventor's self-test, once daily at night) on signs and symptoms of demodicosis
From the text: Demodectic mites rapidly desiccate and die when removed from the body and cannot reproduce in vitro, and skin conditions triggered by demodex are part of a complex innate immune response not yet fully explained by medical research. […] Treatment is preferentially once-daily, at night, with topical applications, of a rinse-off shampoo/shower gel, and of a leave-on skin lotion. Treatment of the inflammatory response to demodex with compositions comprising the invention is novel and not previously reported. Treatment of the inflammatory response to demodex includes treatment of type 1 flushing rosacea, type 2 acne rosacea, type 4 ocular rosacea, demodicosis gravis, granulomatous rosacea, and pityriasis folliculorum, and treatment of demodicosis in mammalian quadrupeds, namely, demodectic mange.
Sebaceous glands and meibomian glands clogged by mite-detritus atrophy somewhat, extending the time for complete meibomian gland and pilosebaceous unit healing to approximately 110 days.^12 The foregoing results are consistent with the suppression or eradication of demodectic mites, establishing piroctone olamine treatment as anti-demodectic, as shown by the reduction or elimination of blepharitis, meibomian gland dysfunction, and papules about the eyelids, nose, lips, and lip margins.
The rinse-off cleanser of the compositions comprising the invention, is used as a typical topical shampoo/shower gel, and can be used over the entire scalp and body, with the exception that the rinse-off cleanser is applied to a wet body and lathered without running shower-water, so that the cleanser can be massaged onto the skin and scalp for 3 to 5 minutes, paying particular attention to the face and margins of the eyelids, and then rinsed off. Neither composition is intended to be applied directly onto the cornea, as the eyes are expected to be shut when applying either composition.
The leave-on lotion described herein is used as any typical lotion, and can be used over the entire body, paying particular attention to the face and margins of the eyes, preferentially at night. […]

[2] = cited from earlier work
[3] = tested on: Malassezia; test: Self-treatment of seborrheic dermatitis with climbazole topical products; format: in vivo, human; settings: rinse-off shampoo/shower gel and leave-on lotion with 0.07% climbazole as active ingredient, MCT oil base
From the text: A brief history underscores the relevance of the test results. […] Dermatitis caused a severe impairment in the quality of life. Therefore, beginning three years ago, the inventor studied dermal inflammations, to conduct an accurate differential diagnosis and treat their skin condition. […] Hegor's product however contains sodium lauryl sulfate, which irritates the skin and so this shampoo cannot be used as a leave-on lotion. Moreover, all commercial lotions are formulated with oils with carbon-chain lengths longer than 10 such that Malassezia metabolizes all commercial lotions, which greatly exacerbated the inventor's seborrheic dermatitis. (See, non-patent reference number 30, by Wilde.) Dissatisfied with commercial products that made seborrheic skin conditions worse, sixteen months ago the inventor compounded topical compositions, a rinse-off shampoo/shower gel and a leave-on lotion, where the active ingredient was 0.07% climbazole and the base-oil was exclusively MCT oil (caprylic/capric oil), comprised only of carbon chain lengths of C8 and C10. While using this compounded topical treatment, all symptoms of seborrheic dermatitis induced by Malassezia were eliminated approximately one year ago. […]

[4] = usage thousands of time in excess of the compositions disclosed; cited from earlier work

| Compound | red eye and dry eye symptoms ([1]; under 0.07% climbazole-only compositions, after seborrheic dermatitis symptoms were eliminated) | solubility in water [2] | symptoms of seborrheic dermatitis induced by Malassezia [3] | anti-demodectic treatment effect (concluded from symptom relief) ([1]; after compounding and testing the compositions, human test subject) | symptoms and signs of blepharitis, meibomian gland dysfunction, and papules about the eyelid margins and lip margins ([1]; topical compositions with 0.14% piroctone olamine as oil in water emulsion, rinse-off shampoo/shower gel and leave-on lotion once daily at night) | toxicity in topical usage [4] |
| --- | --- | --- | --- | --- | --- | --- |
| CC(C)(C)C(=O)C(Oc1ccc(Cl)cc1)n1ccnc1 (stereo not shown) [climbazole, 1-(4-Chlorophenoxy)-1-(imidazol-1-yl)-3,3-dimethyl-2-butanone] | increased significantly | barely soluble | eliminated | – | – | – |
| Cc1cc(CC(C)CC(C)(C)C)n(O)c(=O)c1.NCCO (stereo not shown) [piroctone olamine, 1-Hydroxy-4methyl-6-(2,4,4-trimethylpentyl)-2(1H) pyridinone, 2-aminoethanol salt] | – | barely soluble | – | effective anti-demodectic treatment | reduced and eliminated; also recorded: rapid and dramatic reduction | non-toxic |
